Experiments:
human recombinant HDAC1 = target: T1, human recombinant HDAC1 (Homo sapiens, UniProt Q13547); assay: HDAC1 enzyme activity inhibition (HDAC Fluorimetric Drug Discovery Kit); format: biochemical; details: human recombinant HDAC1; IC50 calculated with GraphPad Prism; read-out: HDAC1
T1 construct: purchased Enzo Life Science, Inc. BML-SE456
How it was run: (§1)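 Each isoform is run in the same format: compound dilutions (5-fold steps), 10 μM substrate, […] enzyme, one hour at 30° C, then 30 minutes with developer before fluorescence readout.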

human recombinant HDAC6 = target: T2, human recombinant HDAC6 (Homo sapiens, UniProt Q9UBN7); assay: HDAC6 enzyme activity inhibition (HDAC Fluorimetric Drug Discovery Kit); format: biochemical; details: for HDAC6 selectivity (fold): HDAC1 IC50 / HDAC6 IC50; for IC50: human recombinant HDAC6, IC50 calculated with GraphPad Prism
T2 construct: purchased Calbiochem Inc. 382180
T2 sequence (Q9UBN7 1-1215): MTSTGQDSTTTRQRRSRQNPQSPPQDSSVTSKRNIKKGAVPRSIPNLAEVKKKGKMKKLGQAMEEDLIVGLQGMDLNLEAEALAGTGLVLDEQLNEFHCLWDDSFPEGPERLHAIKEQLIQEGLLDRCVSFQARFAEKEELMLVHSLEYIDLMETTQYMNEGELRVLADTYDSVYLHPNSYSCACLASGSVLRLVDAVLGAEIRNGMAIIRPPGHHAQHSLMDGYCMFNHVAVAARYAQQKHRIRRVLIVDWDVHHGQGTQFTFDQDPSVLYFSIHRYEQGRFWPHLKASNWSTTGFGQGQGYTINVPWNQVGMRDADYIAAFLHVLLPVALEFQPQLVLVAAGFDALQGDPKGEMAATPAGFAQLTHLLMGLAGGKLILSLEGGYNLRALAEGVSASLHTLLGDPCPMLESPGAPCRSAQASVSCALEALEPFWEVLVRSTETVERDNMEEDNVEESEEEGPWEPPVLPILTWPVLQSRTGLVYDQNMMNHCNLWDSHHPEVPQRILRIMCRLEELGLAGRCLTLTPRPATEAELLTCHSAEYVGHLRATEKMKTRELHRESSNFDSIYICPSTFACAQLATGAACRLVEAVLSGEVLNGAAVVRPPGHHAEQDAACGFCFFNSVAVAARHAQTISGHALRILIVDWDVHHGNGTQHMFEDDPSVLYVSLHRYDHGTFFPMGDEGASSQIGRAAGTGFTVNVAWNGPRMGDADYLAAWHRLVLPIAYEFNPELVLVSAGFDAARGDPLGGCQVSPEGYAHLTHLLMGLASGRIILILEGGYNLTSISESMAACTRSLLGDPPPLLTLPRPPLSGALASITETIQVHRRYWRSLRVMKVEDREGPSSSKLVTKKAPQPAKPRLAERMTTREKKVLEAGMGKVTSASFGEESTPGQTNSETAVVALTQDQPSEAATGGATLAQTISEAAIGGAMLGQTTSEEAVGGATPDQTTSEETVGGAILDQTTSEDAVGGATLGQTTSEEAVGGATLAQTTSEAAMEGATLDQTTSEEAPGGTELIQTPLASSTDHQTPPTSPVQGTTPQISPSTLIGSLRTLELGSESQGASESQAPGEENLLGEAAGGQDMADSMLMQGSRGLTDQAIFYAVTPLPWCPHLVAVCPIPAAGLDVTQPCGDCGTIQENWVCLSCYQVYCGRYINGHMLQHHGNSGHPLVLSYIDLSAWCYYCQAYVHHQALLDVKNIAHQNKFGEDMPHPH
How it was run: as §1

T1 sequence (Q13547 whole entry): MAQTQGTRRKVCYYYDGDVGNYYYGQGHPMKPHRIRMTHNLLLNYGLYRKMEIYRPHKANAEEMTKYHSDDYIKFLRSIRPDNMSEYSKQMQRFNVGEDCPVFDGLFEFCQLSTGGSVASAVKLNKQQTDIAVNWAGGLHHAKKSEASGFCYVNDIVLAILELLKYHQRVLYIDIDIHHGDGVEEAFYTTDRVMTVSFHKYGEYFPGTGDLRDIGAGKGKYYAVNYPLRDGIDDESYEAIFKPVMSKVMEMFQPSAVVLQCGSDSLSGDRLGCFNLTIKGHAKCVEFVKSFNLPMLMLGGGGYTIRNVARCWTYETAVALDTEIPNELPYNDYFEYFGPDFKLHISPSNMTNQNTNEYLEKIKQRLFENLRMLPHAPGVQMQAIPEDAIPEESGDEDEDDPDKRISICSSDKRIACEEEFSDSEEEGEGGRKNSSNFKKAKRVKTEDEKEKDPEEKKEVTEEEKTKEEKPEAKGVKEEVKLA

IC50 (human recombinant HDAC1) [nM]	HDAC6 selectivity (fold) (human recombinant HDAC6)	IC50 (human recombinant HDAC6) [nM]	SMILES
> 50000	559	89.4	CN1CCN(c2cc(-c3cn(Cc4ccc(-c5nnc(C(F)F)o5)cc4F)nn3)ccc2F)CC1 [Compound 4424, 2-(difluoromethyl)-5-(3-fluoro-4-((4-(4-fluoro-3-(4-methylpiperazin-1-yl)phenyl)-1H-1,2,3-triazol-1-yl)methyl)phenyl)-1,3,4-oxadiazol]
> 50000	431	116	CC(C)N1CCN(c2cc(-c3cn(Cc4ccc(-c5nnc(C(F)F)o5)cc4F)nn3)ccc2F)CC1 [Compound 4425]
> 50000	334	150	Fc1cc(-c2nnc(C(F)F)o2)ccc1Cn1cc(-c2ccc(F)c(N3CCN(C4CCC4)CC3)c2)nn1 [Compound 4426, 2-(4-((4-(3-(4-cyclobutylpiperazin-1-yl)-4-fluorophenyl)-1H-1,2,3-triazol-1-yl)methyl)-3-fluorophenyl)-5-(difluoromethyl)-1,3,4-oxadiazole]
> 50000	548	91.2	Fc1cc(-c2nnc(C(F)F)o2)ccc1Cn1cc(-c2ccc(F)c(N3CCN(C4COC4)CC3)c2)nn1 [Compound 4427, 2-(difluoromethyl)-5-(3-fluoro-4-((4-(4-fluoro-3-(4-(oxetan-3-yl)piperazin-1-yl)phenyl)-1H-1,2,3-triazol-1-yl)methyl)phenyl)-1,3,4-oxadiazole]
> 50000	747	66.9	CN1C[C@@H]2C[C@H]1CN2c1cc(-c2cn(Cc3ccc(-c4nnc(C(F)F)o4)cc3)nn2)ccc1F [Compound 4429, 2-(difluoromethyl)-5-(4-((4-(4-fluoro-3-((1S,4S)-5-methyl-2,5-diazabicyclo[2.2.1]heptan-2-yl)phenyl)-1H-1,2,3-triazol-1-yl)methyl)phenyl)-1,3,4-oxadiazole]
> 50000	351	142	CN1C[C@@H]2C[C@H]1CN2c1cc(-c2cn(Cc3ccc(-c4nnc(C(F)F)o4)cc3F)nn2)ccc1F [Compound 4430, 2-(difluoromethyl)-5-(3-fluoro-4-((4-(4-fluoro-3-((1S,4S)-5-methyl-2,5-diazabicyclo[2.2.1]heptan-2-yl)phenyl)-1H-1,2,3-triazol-1-yl)methyl)phenyl)-1,3,4-oxadiazole]
> 50000	1510	33.1	CC(=O)N1CCC(Nc2cccc(-c3cn(Cc4ccc(-c5nnc(C(F)F)o5)cc4F)nn3)c2F)CC1 [Compound 4433, 1-(4-((3-(1-(4-(5-(difluoromethyl)-1,3,4-oxadiazol-2-yl)-2-fluorobenzyl)-1H-1,2,3-triazol-4-yl)-2-fluorophenyl)amino)piperidin-1-yl)ethan-1-one]
> 50000	2392	20.9	CCCN1CCC(Nc2cccc(-c3cn(Cc4ccc(-c5nnc(C(F)F)o5)cc4F)nn3)c2F)CC1 [Compound 4434, N-(3-(1-(4-(5-(difluoromethyl)-1,3,4-oxadiazol-2-yl)-2-fluorobenzyl)-1H-1,2,3-triazol-4-yl)-2-fluorophenyl)-1-propylpiperidin-4-amine]
> 50000	1369	36.5	CC(C)N1CCC(Nc2ccc(F)c(-c3cn(Cc4ccc(-c5nnc(C(F)F)o5)cc4F)nn3)c2)CC1 [Compound 4436, N-(3-(1-(4-(5-(difluoromethyl)-1,3,4-oxadiazol-2-yl)-2-fluorobenzyl)-1H-1,2,3-triazol-4-yl)-4-fluorophenyl)-1-isopropylpiperidin-4-amine]
> 50000	600	83.3	CC(=O)N1CCC(Nc2ccc(F)c(-c3cn(Cc4ccc(-c5nnc(C(F)F)o5)cc4F)nn3)c2)CC1 [Compound 4437, 1-(4-((3-(1-(4-(5-(difluoromethyl)-1,3,4-oxadiazol-2-yl)-2-fluorobenzyl)-1H-1,2,3-triazol-4-yl)-4-fluorophenyl)amino)piperidin-1-yl)ethan-1-one]
> 50000	934	53.5	CCCN1CCC(Nc2ccc(F)c(-c3cn(Cc4ccc(-c5nnc(C(F)F)o5)cc4F)nn3)c2)CC1 [Compound 4438, N-(3-(1-(4-(5-(difluoromethyl)-1,3,4-oxadiazol-2-yl)-2-fluorobenzyl)-1H-1,2,3-triazol-4-yl)-4-fluorophenyl)-1-propylpiperidin-4-amine]
> 50000	1831	27.3	C[C@@H]1CN(c2cccc(-c3cn(Cc4ccc(-c5nnc(C(F)F)o5)cc4F)nn3)c2)C[C@H](C)N1 [Compound 4439, 2-(difluoromethyl)-5-(4-((4-(3-((3R,5S)-3,5-dimethylpiperazin-1-yl)phenyl)-1H-1,2,3-triazol-1-yl)methyl)-3-fluorophenyl)-1,3,4-oxadiazole]
> 50000	1655	30.2	C[C@@H]1CN(c2cccc(-c3cn(Cc4ccc(-c5nnc(C(F)F)o5)cc4)nn3)c2)C[C@H](C)N1 [Compound 4440, 2-(difluoromethyl)-5-(4-((4-(3-((3R,5S)-3,5-dimethylpiperazin-1-yl)phenyl)-1H-1,2,3-triazol-1-yl)methyl)phenyl)-1,3,4-oxadiazole]
> 50000	1315	38	C[C@@H]1CN(c2cccc(-c3cn(Cc4ccc(-c5nnc(C(F)F)o5)cc4)nn3)c2)C[C@H](C)N1C [Compound 4441, 2-(difluoromethyl)-5-(4-((4-(3-((3R,5S)-3,4,5-trimethylpiperazin-1-yl)phenyl)-1H-1,2,3-triazol-1-yl)methyl)phenyl)-1,3,4-oxadiazole]
> 50000	1256	39.8	CCN1[C@H](C)CN(c2cccc(-c3cn(Cc4ccc(-c5nnc(C(F)F)o5)cc4)nn3)c2)C[C@@H]1C [Compound 4442]
> 50000	2183	22.9	C[C@@H]1CN(c2cccc(-c3cn(Cc4ccc(-c5nnc(C(F)F)o5)cc4F)nn3)c2)C[C@H](C)N1C [Compound 4443, 2-(difluoromethyl)-5-(3-fluoro-4-((4-(3-((3R,5S)-3,4,5-trimethylpiperazin-1-yl)phenyl)-1H-1,2,3-triazol-1-yl)methyl)phenyl)-1,3,4-oxadiazole]
> 50000	1872	26.7	CCN1[C@H](C)CN(c2cccc(-c3cn(Cc4ccc(-c5nnc(C(F)F)o5)cc4F)nn3)c2)C[C@@H]1C [Compound 4444]
> 50000	2873	17.4	CC(C)N1CCN(C(=O)c2cccc(-c3cn(Cc4ccc(-c5nnc(C(F)F)o5)cn4)nn3)c2)CC1 [Compound 4448, (3-(1-((5-(5-(difluoromethyl)-1,3,4-oxadiazol-2-yl)pyridin-2-yl)methyl)-1H-1,2,3-triazol-4-yl)phenyl)(4-isopropylpiperazin-1-yl)methanone]
> 50000	3759	13.3	CN(C)CCN(C)C(=O)c1cccc(-c2cn(Cc3ccc(-c4nnc(C(F)F)o4)cn3)nn2)c1 [Compound 4449, 3-(1-((5-(5-(difluoromethyl)-1,3,4-oxadiazol-2-yl)pyridin-2-yl)methyl)-1H-1,2,3-triazol-4-yl)-N-(2-(dimethylamino)ethyl)-N-methylbenzamide]

SMILES	IC50 (human recombinant HDAC1) [nM]	HDAC6 selectivity (fold) (human recombinant HDAC6)	IC50 (human recombinant HDAC6) [nM]
CN1CCC(Nc2ccc(F)c(-c3cn(Cc4ccc(-c5nnc(C(F)F)o5)cc4F)nn3)c2)CC1 [Compound 4435, N-(3-(1-(4-(5-(difluoromethyl)-1,3,4-oxadiazol-2-yl)-2-fluorobenzyl)-1H-1,2,3-triazol-4-yl)-4-fluorophenyl)-1-methylpiperidin-4-amine]	> 50000	1677	29.8

— patent US20230257372A1 (CHONG KUN DANG PHARMACEUTICAL CORP., priority 2020, published 2023)
